{"source": "patent US20210284944A1", "about": "“HIGH-THROUGHPUT MULTI-ORGAN PERFUSION MODELS” (Novartis AG, priority 2018, published 2021)", "key": {"[1]": {"tested_on": "primary human hepatocytes", "test": "Hepatocyte-cancer cell crosstalk: viability of the hepatocytes after drug treatment", "format": "cell-based", "conditions": "Tegafur added to hepatocyte chamber; 72 hours", "method": "(§1) 20,000 primary human hepatocytes (Lonza) (Hepatocyte plating medium for 4 hours, followed by hepatocyte maintenance medium with 0.3% (v/v) matrigel GFR for 20 hours) or HepG2 cells (to be transfected with CYP2A6 cDNA (as per vendor's recommendation)) were plated in one well of the two connected wells in their respective cell culture medium (catalog number 3386 for Transwell® plate). Prior to plating the primary human hepatocytes from Lonza, the Transwell® plate was coated with 0.1 mg/ml collagen (50 μls) (C3867 Sigma—collagen I rat tail solution) (solubilized in 0.1% acetic acid in 1×PBS (v/v)) for 1 hour at 37° C. (cell culture incubator) and washed with 1×PBS. The primary human hepatocytes were sandwiched in the human hepatocyte maintenance medium with 0.3% matrigel GFR (v/v) for the next 20 hours.\nThe high-throughput microfluidic device illustrated in FIG. 5B was cleaned, assembled and sterilized via autoclaving for 60 minutes. The wells of the autoclave-sterilized high-throughput microfluidic device (with two wells connected for each test unit) were filled with 300 μLs of media and centrifuged at 40 r.c.f for 4 minutes to fill all the flow channels. […] FIG. 12A depicts how the wells are filled, and FIG. 12B illustrates a test unit of the system. […]"}, "[2]": {"tested_on": "HCT116 colorectal cancer cells", "test": "Hepatocyte-cancer cell crosstalk: prodrug added to hepatocyte well, cell death in connected HCT116 well (live/dead staining)", "format": "cell-based", "conditions": "increasing concentrations of Tegafur (0, 100, 200, 300 and 400 uM) added to hepatocyte chamber; fluidic flow 72 hours", "method": "as §1, with “([…] Sigma-collagen” for “(C3867 Sigma—collagen”, “hours. In the other connected well of each test unit, 20,000 HCT116 cells were plated directly on the Transwell® membrane in McCoy's 5A media. For HepG2 cells, the cells were transfected with CYP2A6 cDNA for 48 hours prior to any drug addition. On the day of drug addition, the HCT116 colorectal cancer cells were moved into hepatocyte media in order to prevent mixing of different mediums. The high-throughput microfluidic device illustrated in FIG. 5B was cleaned, assembled and sterilized via autoclaving for 60 minutes. […]” for “hours.”"}, "[3]": {"tested_on": "HCT116 colon cancer cells", "test": "Staurosporine acute toxicity on HCT116 cells in connected wells of the microfluidic device (live/dead staining)", "format": "cell-based", "conditions": "for cell death (live/dead staining): 24 hours", "method": "20,000 HCT116 cells were plated directly on the Transwell® membrane (catalog number 3386 for Transwell® plate) in McCoy's 5A media such that the connected wells preceding them were either filled with McCoy's 5A media (50 μls) alone or filled with 25 μls of 2.5 mg/ml collagen gel, with McCoy's 5A media (50 μls) above it. The arrangement is depicted in FIG. 11A, showing three pairs of connected wells (test units), where the lower well in each connected pair (test unit) has medium only, while the upper well in each test unit has HCT116 cells inside the well.\nThe high-throughput microfluidic device of FIG. 5B was cleaned, assembled and sterilized via autoclaving for 60 minutes. The wells of the autoclave sterilized high-throughput microfluidic device (two-well connects) were filled with 300 μLs of media and centrifuged at 40 r.c.f for 4 minutes to fill all the channels.\nAfter 24 hours of culture, 50 μls of fresh media with different concentrations of staurosporine were added to different wells (see FIG. 11A). The device was placed on a compressed air system and the fluid was pumped via membrane flexion under a compressed air cycle of 1.5 psi (amplitude), sinusoidal wave pattern with a frequency of 0.2. The cells were imaged with live/dead staining after 24 hours to understand the diffusion characteristics of the drug and resulting cell death induced by staurosporine. […] Note that each image of the cells in a single well is divided into quadrants."}, "[4]": {"tested_on": "heart, liver and lung microfluidic modules", "conditions": "Skardal et al., Scientific Reports 7(1), 8837 (2017); cited from earlier work"}}}
{"compound": "O=c1[nH]c(=O)n(C2CCCO2)cc1F", "note": "(centres unmarked) [Tegafur]", "values": [{"measurement": "propidium iodide stain in the hepatocytes", "setting": "[1]", "value": "slight dose dependent increase"}, {"measurement": "viability of hepatocytes after drug treatment", "setting": "[1]", "value": "high viability"}, {"measurement": "toxicity to HCT116 eGFP cells in the connected wells", "setting": "[2]", "value": "significant dose dependent toxicity"}]}
{"compound": "CN[C@@H]1C[C@H]2O[C@@](C)([C@@H]1OC)n1c3ccccc3c3c4c(c5c6ccccc6n2c5c31)C(=O)NC4", "note": "[staurosporine]", "values": [{"measurement": "cell death (live/dead staining)", "setting": "[3]; test units with collagen gel plug as diffusion barrier, higher concentration of staurosporine", "value": "only a minor increase in cell death"}, {"measurement": "cell death in the HCT116 cells", "setting": "[3]; test units without collagen gel, 0 μM, 25 μM and 50 μM staurosporine in connected well, 24 hours of operation", "value": "dose-dependent cell death"}, {"measurement": "cell death (live/dead staining)", "setting": "[3]; without collagen gel, second image, 25 uM staurosporine", "value": "significant cell death"}, {"measurement": "cell death (live/dead staining)", "setting": "[3]; without collagen gel, third image, 50 uM staurosporine", "value": "much more cell death"}]}
{"compound": "bleomycin", "values": [{"measurement": "toxicity in multi-organ system", "setting": "[4]", "value": "induce lung inflammatory factor-driven cardiotoxicity"}]}
